Laboratory results: PubChem BioAssay (NCI)
Values joined by “and” are separate entries in the source; they are usually repeats but may differ in a detail not shown here. Equal values may be shown once.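 Grown in 96-well plates, cells were treated for 48 hours with each compound at five concentrations. Insufficient inhibition: endpoint recorded as highest concentration tested. The concentration for 50% growth inhibition is given as GI50. TGI denotes the concentration required for complete inhibition of growth.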

Legend:
Assay in all cases: growth of human tumour cells (NCI), 48 h
[1] = tested on: EKVX NSCLC
[2] = tested on: RPMI-8226 leukemia
[3] = tested on: HCT-116 colon
[4] = tested on: M14 melanoma
[5] = tested on: HL-60(TB) leukemia
[6] = tested on: LOX IMVI melanoma
[7] = tested on: ACHN renal
[8] = tested on: K-562 leukemia
[9] = tested on: SW-620 colon
[10] = tested on: OVCAR-3 ovarian

CC(=O)NNc1nc(C)c(C(=O)NNC(=O)C(=O)Nc2ccc(Cl)cc2)s1
TGI [1]: > 100 µM | TGI [2]: > 100 µM | TGI [3]: > 100 µM | TGI [4]: > 100 µM | TGI [5]: > 100 µM | TGI [6]: > 100 µM | TGI [7]: > 100 µM | TGI [8]: > 100 µM | TGI [9]: > 100 µM | TGI [10]: > 100 µM

C=C1C(=O)C23CC1CCC2C12CO[C@@H]4OCC(C)(CC[C@@H]1OC3=O)C42 (stereo partly drawn)
TGI [1]: 32.1 µM | TGI [2]: 19 µM | TGI [3]: 6.33 µM | TGI [4]: 2.88 µM | TGI [5]: 19.5 µM | TGI [6]: 3.44 µM | TGI [7]: 9.4 µM | TGI [8]: > 100 µM | TGI [9]: 7.04 µM | TGI [10]: 16.6 µM

CCCCCCCCCCCCCCCCCC(CCCCCCCCCCCCCCCCC)OP(=O)(O)O
TGI [1]: > 100 µM | TGI [2]: > 100 µM | TGI [3]: > 100 µM | TGI [4]: > 100 µM | TGI [5]: > 100 µM | TGI [6]: > 100 µM | TGI [7]: > 100 µM | TGI [8]: > 100 µM | TGI [9]: > 100 µM | TGI [10]: > 100 µM

Cn1cnc([N+](=O)[O-])c1Sc1nnc(-c2cccnc2)n1C
TGI [1]: 66.4 µM | TGI [2]: 49.4 µM | TGI [3]: 40.1 µM | TGI [4]: 35.4 µM | TGI [5]: 21.1 µM | TGI [6]: 34.9 µM | TGI [7]: 36.7 µM | TGI [8]: 57.8 µM | TGI [9]: 31.3 µM | TGI [10]: 35.1 µM

O=C1C=C(Cl)C(=O)C(c2ccc(Cl)cc2)=C1
TGI [1]: 30.2 µM | TGI [2]: 83.8 µM | TGI [3]: 38.1 µM | TGI [4]: 32.2 µM | TGI [5]: 42.8 µM | TGI [6]: 35.7 µM | TGI [7]: 30.3 µM | TGI [8]: 23.8 µM | TGI [9]: 89.5 µM | TGI [10]: 34.3 µM

Cc1coc2c1CC1(C)C(CCC(O)C1C)C2 (stereo not drawn)
TGI [1]: > 100 µM | TGI [2]: > 100 µM | TGI [3]: > 100 µM | TGI [4]: > 100 µM | TGI [5]: > 100 µM | TGI [6]: > 100 µM | TGI [7]: > 100 µM | TGI [8]: > 100 µM | TGI [9]: > 100 µM | TGI [10]: > 100 µM

CCOC(=O)[C@]1(OC(C)=O)C[C@H](OC(C)=O)[C@@H](C(F)COP(=O)(OCc2ccccc2)OCc2ccccc2)O1 (stereo partly drawn)
GI50 [1]: 26.3 µM and > 100 µM | TGI [1]: 71.3 µM and > 100 µM | TGI [2]: 46.5 µM and 82.5 µM | GI50 [3]: 23.4 µM and > 100 µM | TGI [3]: 57.9 µM and > 100 µM | GI50 [4]: 49.4 µM and > 100 µM | TGI [4]: > 100 µM | GI50 [5]: 31.9 µM and > 100 µM | TGI [5]: 86.6 µM and > 100 µM | GI50 [6]: 29.4 µM and > 100 µM | TGI [6]: > 100 µM | GI50 [7]: 34.8 µM and > 100 µM | TGI [7]: > 100 µM | TGI [8]: > 100 µM | GI50 [9]: 20.2 µM and > 100 µM | TGI [9]: 42.8 µM and > 100 µM | GI50 [10]: 29.6 µM and > 100 µM | TGI [10]: 79.4 µM and > 100 µM

COC1CCC(N2C(=O)CNc3ncc(-c4ccc(C(C)(C)O)nc4)nc32)CC1 (stereo not drawn)
GI50 [1]: 1.21 µM and 0.186 µM | TGI [1]: > 8.47 µM and 6.7 µM | GI50 [2]: 0.376 µM and 0.0559 µM | TGI [2]: 2.95 µM and 3.97 µM | GI50 [3]: 2.07 µM and 0.809 µM | TGI [3]: > 10 µM and 13.8 µM | GI50 [4]: 0.614 µM and 0.134 µM | TGI [4]: > 6.95 µM and 11.8 µM | GI50 [5]: 2.88 µM and 1.09 µM | TGI [5]: > 10 µM and 30.8 µM | GI50 [6]: 1.35 µM and 0.329 µM | TGI [6]: > 34.2 µM | GI50 [7]: 1.07 µM and 0.205 µM | TGI [7]: > 100 µM | GI50 [8]: 2.28 µM and 0.77 µM | TGI [8]: > 100 µM | GI50 [9]: 1.78 µM and 0.935 µM | TGI [9]: > 37.5 µM | GI50 [10]: 0.904 µM and 0.248 µM | TGI [10]: > 33 µM

CC(C)CCC[C@@H](C)[C@H]1CC[C@H]2[C@@H]3CC=C4C[C@@H](C(C(=O)O)C(=O)O)CC[C@]4(C)[C@H]3CC[C@]12C
GI50 [1]: 0.0786 µM | TGI [1]: 0.245 µM | GI50 [2]: 0.353 µM | TGI [2]: 0.938 µM | GI50 [3]: 0.101 µM | TGI [3]: 0.798 µM | GI50 [4]: 0.186 µM | TGI [4]: 1.76 µM | GI50 [5]: 0.252 µM | TGI [5]: 1.48 µM | GI50 [6]: 0.139 µM | TGI [6]: 0.468 µM | GI50 [7]: 0.15 µM | TGI [7]: 0.662 µM | GI50 [8]: 0.144 µM | TGI [8]: 2 µM | GI50 [9]: 0.156 µM | TGI [9]: 1.25 µM | GI50 [10]: 0.121 µM | TGI [10]: 0.298 µM

O=C1C(Cl)=C(Nc2cccc(Cl)c2)C(=O)N1Cc1ccc(Cl)cc1Cl
GI50 [1]: 9.31 µM | TGI [1]: 34.4 µM | GI50 [2]: 3.18 µM | TGI [2]: 15.4 µM | GI50 [3]: 0.685 µM | TGI [3]: 7.57 µM | GI50 [4]: 4.87 µM | TGI [4]: 21.9 µM | GI50 [5]: 7.66 µM | TGI [5]: > 100 µM | GI50 [6]: < 0.0316 µM | TGI [6]: 11.5 µM | GI50 [7]: 0.409 µM | TGI [7]: 7.71 µM | GI50 [8]: 0.834 µM | TGI [8]: > 87.5 µM | GI50 [9]: 0.115 µM | TGI [9]: 18.9 µM | GI50 [10]: 11.1 µM | TGI [10]: 24.8 µM

O=C1C(=O)N(c2ccc(Cl)cc2Cl)C(=O)C(=O)C1c1nc2ccccc2s1
TGI [1]: > 100 µM | TGI [2]: > 100 µM | TGI [3]: > 100 µM | TGI [4]: > 100 µM | TGI [5]: 67.1 µM | TGI [6]: > 100 µM | TGI [7]: > 100 µM | TGI [8]: > 100 µM | TGI [9]: > 100 µM | TGI [10]: > 100 µM

COC1=CC(=O)c2nc(-c3ccncc3)[nH]c2C1=O
GI50 [1]: > 100 µM | TGI [1]: > 100 µM | GI50 [2]: > 100 µM | TGI [2]: > 100 µM | GI50 [3]: > 100 µM | TGI [3]: > 100 µM | GI50 [4]: > 100 µM | TGI [4]: > 100 µM | GI50 [5]: > 100 µM | TGI [5]: > 100 µM | GI50 [6]: > 100 µM | TGI [6]: > 100 µM | GI50 [7]: > 100 µM | TGI [7]: > 100 µM | GI50 [8]: > 100 µM | TGI [8]: > 100 µM | GI50 [9]: > 100 µM | TGI [9]: > 100 µM | GI50 [10]: > 100 µM | TGI [10]: > 100 µM
